How the values were obtained:
Test in all cases: relative viability (nuclei count vs DMSO), 5 days (fraction); higher = more cells survive
Selumetinib + Crizotinib = compound: Cn1cnc2c(F)c(Nc3ccc(Br)cc3Cl)c(C(=O)NOCCO)cc21 [Selumetinib] + C[C@@H](Oc1cc(-c2cnn(C3CCNCC3)c2)cnc1N)c1c(Cl)ccc(F)c1Cl [Crizotinib] (partner 1 µM)
Summary of the method: (§1)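 Dosing by pin tool came one day after lung cancer cell lines were seeded in 1536-well plates, using either one drug or a fixed anchor-drug dose plus five library-drug doses (not always all listed) in √10 steps. After 5 days, nuclei were counted on 4× images. Relative viability is treated-well nuclei count divided by vehicle-well nuclei count, and values are medians of duplicate plates.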

Venetoclax + Bortezomib = compound: CC1(C)CCC(CN2CCN(c3ccc(C(=O)NS(=O)(=O)c4ccc(NCC5CCOCC5)c([N+](=O)[O-])c4)c(Oc4cnc5[nH]ccc5c4)c3)CC2)=C(c2ccc(Cl)cc2)C1 [Venetoclax] + CC(C)C[C@H](NC(=O)[C@H](Cc1ccccc1)NC(=O)c1cnccn1)B(O)O [Bortezomib] (partner 0.002 µM)
Summary of the method: as §1

Venetoclax + Olaparib = compound: CC1(C)CCC(CN2CCN(c3ccc(C(=O)NS(=O)(=O)c4ccc(NCC5CCOCC5)c([N+](=O)[O-])c4)c(Oc4cnc5[nH]ccc5c4)c3)CC2)=C(c2ccc(Cl)cc2)C1 [Venetoclax] + O=C(c1cc(Cc2n[nH]c(=O)c3ccccc23)ccc1F)N1CCN(C(=O)C2CC2)CC1 [Olaparib] (partner 8 µM)
Summary of the method: as §1

Venetoclax + Luminespib = compound: CC1(C)CCC(CN2CCN(c3ccc(C(=O)NS(=O)(=O)c4ccc(NCC5CCOCC5)c([N+](=O)[O-])c4)c(Oc4cnc5[nH]ccc5c4)c3)CC2)=C(c2ccc(Cl)cc2)C1 [Venetoclax] + CCNC(=O)c1noc(-c2cc(C(C)C)c(O)cc2O)c1-c1ccc(CN2CCOCC2)cc1 [Luminespib] (partner 0.01 µM)
Summary of the method: as §1

UMC-11 showed a relative viability (Selumetinib + Crizotinib; first compound 0.02 µM) of 0.686, a relative viability (Selumetinib + Crizotinib; first compound 0.06325 µM) of 0.594 and a relative viability (Selumetinib + Crizotinib; first compound 0.2 µM) of 0.515. It also gave a relative viability (Selumetinib + Crizotinib; first compound 0.6325 µM) of 0.645, a relative viability (Venetoclax + Bortezomib; first compound 0.01 µM) of 0.625 and a relative viability (Venetoclax + Bortezomib; first compound 0.03162 µM) of 0.889. The relative viability (Venetoclax + Bortezomib; first compound 0.1 µM) was 0.604, the relative viability (Venetoclax + Bortezomib; first compound 0.3162 µM) was 0.732 and the relative viability (Venetoclax + Bortezomib; first compound 1 µM) was 0.691. It also gave a relative viability (Venetoclax + Olaparib; first compound 0.01 µM) of 0.401, a relative viability (Venetoclax + Olaparib; first compound 0.03162 µM) of 0.322 and a relative viability (Venetoclax + Olaparib; first compound 0.1 µM) of 0.303. It also gave a relative viability (Venetoclax + Olaparib; first compound 0.3162 µM) of 0.379, a relative viability (Venetoclax + Olaparib; first compound 1 µM) of 0.886 and a relative viability (Venetoclax + Luminespib; first compound 0.01 µM) of 1.06. The relative viability (Venetoclax + Luminespib; first compound 0.03162 µM) was 0.987, the relative viability (Venetoclax + Luminespib; first compound 0.1 µM) was 1.04 and the relative viability (Venetoclax + Luminespib; first compound 0.3162 µM) was 1.02. The relative viability (Venetoclax + Luminespib; first compound 1 µM) was 0.882.
